A short description of series [1]: Exposed Polar Surface Area (EPSA). The class given is physicochemical. Conditions: SFC on Chirex 3014 column; sample 1 mM DMSO stock; read-out: EPSA. A digest of the protocol:
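Compounds, as 1 mM DMSO stock, were injected in duplicate onto an SFC Chirex 3014 column at 35 °C and eluted with a CO2/methanol (20 mM ammonium formate) gradient. EPSA values in Å^2 were derived from retention times using a linear fit to eight calibration standards, reinjected every 20 compounds.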

A further series deals with T1, IL-23R (Homo sapiens, UniProt Q5VWK5).
T1 construct: host or cells: HEK293
T1 sequence (Q5VWK5 24-629): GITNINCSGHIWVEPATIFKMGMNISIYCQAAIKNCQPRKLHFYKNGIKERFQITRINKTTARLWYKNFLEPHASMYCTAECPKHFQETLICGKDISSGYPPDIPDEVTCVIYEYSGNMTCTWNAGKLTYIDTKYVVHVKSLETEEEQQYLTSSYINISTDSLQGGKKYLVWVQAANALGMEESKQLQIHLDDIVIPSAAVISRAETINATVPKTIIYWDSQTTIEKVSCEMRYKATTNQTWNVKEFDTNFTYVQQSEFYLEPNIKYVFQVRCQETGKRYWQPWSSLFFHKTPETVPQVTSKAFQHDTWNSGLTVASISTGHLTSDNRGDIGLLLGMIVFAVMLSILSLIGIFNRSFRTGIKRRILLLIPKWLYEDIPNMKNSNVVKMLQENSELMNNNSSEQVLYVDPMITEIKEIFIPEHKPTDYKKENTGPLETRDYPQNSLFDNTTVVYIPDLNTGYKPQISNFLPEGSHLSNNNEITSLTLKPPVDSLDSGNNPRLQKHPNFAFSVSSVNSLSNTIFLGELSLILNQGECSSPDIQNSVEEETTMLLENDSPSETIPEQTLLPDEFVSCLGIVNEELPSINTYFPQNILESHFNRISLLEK
Description: IL23R Reporter Assay. Format: cell-based. Conditions: HEK293 cells containing IL-23R, IL-12RP1 and STAT-inducible firefly luciferase reporter; 10 ng/mL IL-23 (EC90); 5 h at 37° C.; read-out: IL23R Reporter Assay. In general terms: Reporter assays use an easily measured gene product as a stand-in for the process of interest.

Positions of bridges follow the written chain, without caps; N, C: chain ends. Non-standard residues stand in square brackets, D forms with d. Residues, ends and D or L forms follow the SMILES beside them. *: point of attachment. Trp(7-(3-AcNH-Ph)) = CC(=O)Nc1cccc(-c2cccc3c(C[C@H](N)C(=O)O)c[nH]c23)c1; Me3N+(CH2)2O(CH2)2O(CH2)2CO = C[N+](C)(C)CCOCCOCCC(=O)*; Phe(4-guanidino) = N=C(N)Nc1ccc(C[C@H](N)C(=O)O)cc1; Trp(7-Me) = Cc1cccc2c(C[C@H](N)C(=O)O)c[nH]c12; X28 = CCCCCCCCCCCCCCCC[N+](C)(C)CCc1cn(CC*)nn1; Dab(NMeAc) = CC(=O)N(C)CC[C@H](N)C(=O)O; 2Nal = N[C@@H](Cc1ccc2ccccc2c1)C(=O)O; 3Pal = N[C@@H](Cc1cccnc1)C(=O)O; Lys(Me) = CNCCCC[C@H](N)C(=O)O; Pen = CC(C)(S)[C@H](N)C(=O)O; X44 = c1cc[n+](CCOCCOCC*)cc1; X38 = C[N+](C)(C)CCCCCC*; Thp = NC1(C(=O)O)CCOCC1; X3 = C[N+](C)(C)CCCCC*; Sar = CNCC(=O)O

As for `CCCCCCCCCCCCCCCC[N+](C)(C)CCc1cn(CCOc2ccc(C[C@H](NC(=O)[C@H]3NC(=O)[C@H](CCCCN(C)C(C)=O)NC(=O)[C@H](Cc4c[nH]c5c(C)cccc45)NC(=O)[C@H]([C@@H](C)O)NC(=O)[C@H](CC(=O)N(C)C)NC(=O)[C@@H](NC(=O)CCOCCOCC[N+](C)(C)C)C(C)(C)SSC3(C)C)C(=O)N[C@@H](Cc3ccc4ccccc4c3)C(=O)NC3(C(=O)N[C@@H](CCCCN(C)C(C)=O)C(=O)N[C@@H](CC(N)=O)C(=O)N[C@@H](Cc4cccnc4)C(=O)N(C)CC(=O)N(C)C)CCOCC3)cc2)nn1` [compound 291, cPEG3aCO-Pen(3)-N(N(Me)2)-T-7MeW-K(NMeAc)-Pen(3)-Y(OTzlChC16)-2Nal-THP-K(NMeAc)-N-3Pya-Sar-CON(Me)2] ({Me3N+(CH2)2O(CH2)2O(CH2)2CO}-[Pen]D(NMe2)T[Trp(7-Me)][Lys(Me)](Ac)[Pen]Y(X28)[2Nal][Thp][Lys(Me)](Ac)N[3Pal][Sar]-NMe2; disulfide 1-6 (inferred)), the EPSA in series [1] was determined as 137 A^2. Further, the IC50 at IL-23R stood at 610 nM.
In the same order, the values of `CC(=O)N(C)CCCC[C@@H]1NC(=O)[C@H](Cc2c[nH]c3c(C)cccc23)NC(=O)[C@H]([C@@H](C)O)NC(=O)[C@H](CC(=O)N(C)C)NC(=O)[C@@H](NC(=O)CCOCCOCC[N+](C)(C)C)C(C)(C)SSC(C)(C)[C@@H](C(=O)N[C@@H](Cc2ccc(OCCCCCC[N+](C)(C)C)cc2)C(=O)N[C@@H](Cc2ccc3ccccc3c2)C(=O)NC2(C(=O)N[C@@H](CCCCN(C)C(C)=O)C(=O)N[C@@H](CC(N)=O)C(=O)N[C@@H](Cc3cccnc3)C(=O)N(C)CC(=O)N(C)C)CCOCC2)NC1=O` [compound 293, cPEG3aCO-Pen(3)-N(N(Me)2)-T-7MeW-K(NMeAc)-Pen(3)-TMA6F-2Nal-THP-K(NMeAc)-N-3Pya-Sar-CON(Me)2] ({Me3N+(CH2)2O(CH2)2O(CH2)2CO}-[Pen]D(NMe2)T[Trp(7-Me)][Lys(Me)](Ac)[Pen]Y(X38)[2Nal][Thp][Lys(Me)](Ac)N[3Pal][Sar]-NMe2; disulfide 1-6) are 149 A^2 and 3.2 nM.
In the same order, the values of `CC(=O)Nc1cccc(-c2cccc3c(C[C@@H]4NC(=O)[C@H]([C@@H](C)O)NC(=O)[C@H](CC(=O)N(C)C)NC(=O)[C@@H](NC(=O)CCOCCOCC[N+](C)(C)C)C(C)(C)SSC(C)(C)[C@@H](C(=O)N[C@@H](Cc5ccc(OCCCCC[N+](C)(C)C)cc5)C(=O)N[C@@H](Cc5ccc6ccccc6c5)C(=O)NC5(C(=O)N[C@@H](CCCCN(C)C(C)=O)C(=O)N[C@@H](CC(N)=O)C(=O)N[C@@H](Cc6cccnc6)C(=O)N(C)CC(=O)N(C)C)CCOCC5)NC(=O)[C@H](CCCCN(C)C(C)=O)NC4=O)c[nH]c23)c1` [compound 294, cPEG3aCO-Pen(3)-N(N(me)2)-T-7(3NAcPh)W-K(NMeAc)-Pen(3)-TMAPF-2Nal-THP-K(NMeAc)-N-3Pya-Sar-CON(Me)2] ({Me3N+(CH2)2O(CH2)2O(CH2)2CO}-[Pen]D(NMe2)T[Trp(7-(3-AcNH-Ph))][Lys(Me)](Ac)[Pen]Y(X3)[2Nal][Thp][Lys(Me)](Ac)N[3Pal][Sar]-NMe2; disulfide 1-6 (inferred)) are 157 A^2 and 1.2 nM.
In the same order, the values of `CC(=O)N(C)CCCC[C@@H]1NC(=O)[C@H](Cc2c[nH]c3c(C)cccc23)NC(=O)[C@H]([C@@H](C)O)NC(=O)[C@H](CC(=O)N(C)C)NC(=O)[C@@H](NC(=O)CCOCCOCC[N+](C)(C)C)C(C)(C)SSC(C)(C)[C@@H](C(=O)N[C@@H](Cc2ccc(OCCOCCOCC[n+]3ccccc3)cc2)C(=O)N[C@@H](Cc2ccc3ccccc3c2)C(=O)NC2(C(=O)N[C@@H](CCCCN(C)C(C)=O)C(=O)N[C@@H](CC(N)=O)C(=O)N[C@@H](Cc3cccnc3)C(=O)N(C)CC(=O)N(C)C)CCOCC2)NC1=O` [compound 297, cPEG3aCO-Pen(3)-N(N(Me)2)-T-7MeW-K(NMeAc)-Pen(3)-NPyPEG3F-2Nal-THP-K(NMeAc)-N-3Pya-Sar-CON(Me)2] ({Me3N+(CH2)2O(CH2)2O(CH2)2CO}-[Pen]D(NMe2)T[Trp(7-Me)][Lys(Me)](Ac)[Pen]Y(X44)[2Nal][Thp][Lys(Me)](Ac)N[3Pal][Sar]-NMe2; disulfide 1-6 (inferred)) are 153 A^2 and 1.8 nM.
Regarding `CNC(=O)C[C@@H]1NC(=O)[C@@H](NC(=O)CCOCCOCC[N+](C)(C)C)C(C)(C)SSC(C)(C)[C@@H](C(=O)N[C@@H](Cc2ccc(OCCCCC[N+](C)(C)C)cc2)C(=O)N[C@@H](Cc2ccc3ccccc3c2)C(=O)NC2(C(=O)N[C@@H](CCCCN(C)C(C)=O)C(=O)N[C@@H](CC(N)=O)C(=O)N[C@@H](Cc3cccnc3)C(=O)N(C)CC(=O)N(C)C)CCOCC2)NC(=O)[C@H](CCCCN(C)C(C)=O)NC(=O)[C@H](Cc2c[nH]c3c(C)cccc23)NC(=O)[C@H]([C@@H](C)O)NC1=O` [compound 300, cPEG3aCO-Pen(3)-N(N(Me))-T-7MeW-K(NMeAc)-Pen(3)-TMAPF-2Nal-THP-K(NMeAc)-N-3Pya-Sar-CON(Me)2] ({Me3N+(CH2)2O(CH2)2O(CH2)2CO}-[Pen]D(NHMe)T[Trp(7-Me)][Lys(Me)](Ac)[Pen]Y(X3)[2Nal][Thp][Lys(Me)](Ac)N[3Pal][Sar]-NMe2; disulfide 1-6), in series [1], the EPSA is 153 A^2. The IC50 on IL-23R turned out to be 2.1 nM.
In the same order, the values of `CC(=O)N(C)CCCC[C@@H]1NC(=O)[C@H](Cc2c[nH]c3c(C)cccc23)NC(=O)[C@H]([C@@H](C)O)NC(=O)[C@H](CC(=O)N(C)C)NC(=O)[C@@H](NC(=O)CCOCCOCC[N+](C)(C)C)C(C)(C)SSC(C)(C)[C@@H](C(=O)N[C@@H](Cc2ccc(OCCCCC[N+](C)(C)C)cc2)C(=O)N[C@@H](Cc2ccc3ccccc3c2)C(=O)NC2(C(=O)N[C@@H](CCN(C)C(C)=O)C(=O)N[C@@H](CC(N)=O)C(=O)N[C@@H](Cc3cccnc3)C(=O)N(C)CC(=O)N(C)C)CCOCC2)NC1=O` [compound 301, cPEG3aCO-Pen(3)-N(N(Me)2)-T-7MeW-K(NMeAC)-Pen(3)-TMAPF-2Nal-THP-Dab(NMeAc)-N-3Pya-Sar-CON(Me)2] ({Me3N+(CH2)2O(CH2)2O(CH2)2CO}-[Pen]D(NMe2)T[Trp(7-Me)][Lys(Me)](Ac)[Pen]Y(X3)[2Nal][Thp][Dab(NMeAc)]N[3Pal][Sar]-NMe2; disulfide 1-6) are 153 A^2 and 0.73 nM.
The corresponding values for `CC(=O)N(C)CCCC[C@@H]1NC(=O)[C@H](Cc2c[nH]c3c(C)cccc23)NC(=O)[C@H]([C@@H](C)O)NC(=O)[C@H](CC(=O)N(C)C)NC(=O)[C@@H](NC(=O)CCOCCOCC[N+](C)(C)C)C(C)(C)SSC(C)(C)[C@@H](C(=O)N[C@@H](Cc2ccc(NC(=N)N)cc2)C(=O)N[C@@H](Cc2ccc3ccccc3c2)C(=O)NC2(C(=O)N[C@@H](CCCCN(C)C(C)=O)C(=O)N[C@@H](CC(N)=O)C(=O)N[C@@H](Cc3cccnc3)C(=O)N(C)CC(=O)N(C)C)CCOCC2)NC1=O` [compound 304, cPEG3aCO-Pen(3)-N(N(Me)2)-T-7MeW-K(NMeAc)-Pen(3)-F(4G)-2Nal-THP-K(NMeAc)-N-3Pya-Sar-CON(Me)2] ({Me3N+(CH2)2O(CH2)2O(CH2)2CO}-[Pen]D(NMe2)T[Trp(7-Me)][Lys(Me)](Ac)[Pen][Phe(4-guanidino)][2Nal][Thp][Lys(Me)](Ac)N[3Pal][Sar]-NMe2; disulfide 1-6) are 164 A^2 and 1.4 nM.

For the origin of these results see patent US20260022143A1, “Cyclic Peptide Inhibitors of IL-23” (JANSSEN PHARMACEUTICA NV, priority 2022, published 2026).
